The conditions of series [1]: after intake of 500 mg of aspirin; cited from earlier work.
The target of series [2] is T1, K12A/K68A HMGB1^RE (Homo sapiens, UniProt P09429, K12A/K68A).
T1 construct: (i) full length: residues 2-215; made in house
T1 sequence (P09429 2-215 K12A/K68A): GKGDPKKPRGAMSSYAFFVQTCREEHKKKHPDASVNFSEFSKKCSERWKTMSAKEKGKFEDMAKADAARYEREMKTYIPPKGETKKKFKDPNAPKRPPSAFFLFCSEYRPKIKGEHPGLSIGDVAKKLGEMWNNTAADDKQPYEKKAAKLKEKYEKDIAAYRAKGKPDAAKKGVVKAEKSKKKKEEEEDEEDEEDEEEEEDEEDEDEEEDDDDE
Kind of series: Chemotaxis assay with mutant K12A/K68A HMGB1^RE. It counts as cell-based. The conditions noted are these: 1 nM mutant HMGB1^RE, 30 μM SA. The protocol: (§1) Cell migration was assayed using Boyden chambers (Venereau et al., 2012). The downside of PVP-free polycarbonate filters (8 μm pores; Millipore) was coated with 50 μg/ml fibronectin (Sigma). Serum-free DMEM (negative control), DMEM containing 0.1 nM fMLP (positive control; Sigma), or DMEM containing 1 nM HMGB1^RE or HMGB1^SS were placed in the lower chamber, together with different concentrations of SA (Sigma). The mouse 3T3 fibroblast cells were cultured in DMEM media supplemented with 10% CS until 90% confluence, washed twice with PBS to eliminate any floating cells, and harvested with trypsin. 50,000 cells in 200 μL were added to the upper chamber, and cells were left to migrate for 3 h at 37° C. Non-migrating cells were removed with a cotton swab, and migrated cells were fixed with ethanol and stained with Giemsa.
Two additional double mutants in Box A were constructed—H27A/R48A and K12A/K68A. […] Since mutant H27A/R48A no longer had chemo-attractant activity, the effect of SA on this activity could not be assessed (FIG. 12).

For series [3], the system named is HMGB1^RE. The series is described as follows: Chemotaxis assay (Boyden chambers): HMGB1^RE-elicited migration of mouse 3T3 fibroblasts. It counts as cell-based. The conditions noted are these: chemo-attractant and cytokine-inducing activities vs literature COX-2 inhibition. The method, then: as §1
(§2) HMGB1^RE acts as a chemo-attractant that mediates migration of several cell types, including monocytes, fibroblasts, mesoangioblasts, smooth muscle cells, and colon cancer cells (Venereau et al., 2012). To determine whether SA alters HMGB 1's chemo-attractant activity, a chemotaxis assay was performed with mouse 3T3 fibroblasts.

For series [4], the target named is T2, HMGB1^RE (Homo sapiens, UniProt P09429).
T2 construct: (i) full length: residues 2-215; 6x His (cleaved yes); made in house; host or cells: Escherichia coli BL21
T2 sequence (P09429 2-215): T1 sequence (P09429 2-215 K12A/K68A) with A11K, A67K
The description is as above. It counts as cell-based. The protocol: as §1, §2

Series [5] addresses T3, AtHMGB3 (Arabidopsis thaliana, UniProt P93047).
T3 sequence (P93047 1-141): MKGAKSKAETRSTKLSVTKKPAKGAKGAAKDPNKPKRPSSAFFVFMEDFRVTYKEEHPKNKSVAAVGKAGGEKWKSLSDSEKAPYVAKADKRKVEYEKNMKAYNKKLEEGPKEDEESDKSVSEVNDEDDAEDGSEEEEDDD
The series is described as follows: Photoaffinity labeling of AtHMGB3 with 4AzSA, competition by SA. The following applies: 50 μM 4AzSA, increasing concentrations of SA.

The target in series [6] is T4, R50A/K54A mutant AtHMGB3 (Arabidopsis thaliana, UniProt P93047, K54A/R50A).
T4 construct: providing a full length Arabidopsis thaliana HMGB1 or HMGB3 (AtHMGB1 or AtHMGB3) protein; made in house
The series is described as follows: MAPK activation assay with mutant R50A/K54A AtHMGB3. The conditions noted are these: in vivo. The protocol:
To detect the phosphorylation of Arabidopsis MAPKs (MPK3/4/6), 3 to 4 week-old soil grown Arabidopsis leaves were infiltrated with 1 μM AtHMGB3 or 1 μM Pep1 peptide ([…]; synthesized by GenScript USA Inc.). […] Proteins were extracted using lacus buffer (25 mM Tris-HCl, pH 7.5, 15 mM MgCl2, 15 mM EGTA, 75 mM NaCl, 1 mM DTT, 0.1% NP-40, 5 mM p-nitrophenylphosphate, 60 mM β-glycerophosphate, 0.1 mM […], 1 mM NaF, 1 mM PMSF, 5 μg/ml leupeptin, 5 μg/ml aprotinin), and then centrifuged at 15,000 g for 10 min at 4 ° C. to remove cell debris.
Thus, these residues (R50 and K54) were mutated to Ala, and the resulting mutant AtHMGB3 tested for its ability to activate MPK3/6 and induce callose deposition in the absence or presence of SA. The R50A/K54A mutant AtHMGB3 retained its ability to activate MPK3/6 and induce callose deposition, but inhibition of these activities by SA was lost (FIG. 7H,I and FIG. 8).

In series [7] the test system is LPS-induced expression of COX-2, IL-6 and TNFα. Kind of series: LPS-induced cytokine and COX-2 gene expression in human macrophages (qPCR). The following applies: 10 ng/ml LPS, 100 μM SA or 1 μM ac3AESA. The class given is cell-based. The protocol:
Human HeLa cells were grown in T75 flasks in DMEM medium supplemented with penicillin (10,000 IU/mL) streptomycin ([…]), and 10% fetal calf serum. Ptgs2−/− MEFs were derived from Ptgs2−/− E16 mouse embryos, obtained from the mating of Ptgs2+/− mice purchased from Taconic Biosciences. PBMCs were isolated from buffy coats of donor blood (Hospital of Magenta, Milan, Italy) by Ficoll gradient centrifugation (Lymphoprep; AXIS-SHIELD. CD14+ monocytes were isolated by positive immunoselection (CD14 Microbeads; Miltenyi Biotec) according to the manufacturer's instructions, and differentiated into macrophages using X-Vivo medium supplemented with 1% heat inactivated human serum, GM-CSF, and M-CSF.
Total RNAs were isolated using the Illustra RNAspin Mini kit (GE Healthcare), and complementary DNA (cDNA) was obtained by retro-transcription with oligo(dT) primers (Invitrogen, Carlsbad, Calif., USA) and SuperScript II Reverse Transcriptase (Invitrogen) following the manufacturers' instructions. Quantitative real-time PCR was performed using a LightCycler480 (Roche Molecular Diagnostics), in duplicates, using SYBR Green I master mix and the oligonucleotides listed in Table of primers below. The ΔCt method was used for quantification, and the β-actin gene was used for normalization.
In general terms: Quantitative PCR measures a nucleic acid by following its amplification.

Positions count from the first letter of the chain named. Read-outs that look alike come from different tables or passages of the source. Bounds are passed on as bounds.

T4 sequence (P93047 whole entry R50A/K54A): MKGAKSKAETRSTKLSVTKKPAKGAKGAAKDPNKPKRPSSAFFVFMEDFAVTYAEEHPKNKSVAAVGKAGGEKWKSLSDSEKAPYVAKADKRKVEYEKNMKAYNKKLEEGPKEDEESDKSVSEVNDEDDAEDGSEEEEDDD

Consider `O=C(O)c1ccccc1O` [SA, salicylic acid], for which the “time to reach the stated SA plasma concentration” value in series [1] is on record as at most 1 h. The “inhibition by SA of K12A/K68A HMGB1^RE chemo-attractant activity” value in series [2] is recorded as “retained”. The “concentration inhibiting HMGB1 bioactivities, fold below that required to inhibit COX-2's enzyme activity” value in series [3] was 10-50 fold. Also, the IC50 in series [4] (mouse 3T3 fibroblasts, 1 nM HMGB1^RE, read-out: IC50, inhibition of HMGB1^RE-elicited migration of fibroblasts) lay within 3 to 4 µM; in series [4] (read-out: IC50, inhibition of HMGB1^RE-induced chemotaxis) it was 3.26 to 4.34 µM. Moreover, in series [5], the “inhibition of crosslinking of 4AzSA to AtHMGB3” value is recorded as “effectively inhibited”. Also, the “inhibition by SA of MPK3/6 activation by R50A/K54A AtHMGB3” value in series [6] is “lost”. Besides, in series [7], the “effect on LPS-induced expression of cytokine and COX-2 genes” value is listed as “did not suppress”.
